pIC50: −log10 of the molar value.
Molecular target: T1, human DGAT1 (Homo sapiens, UniProt O75907)
T1 construct: made in house; host or cells: insect cells (sf9, sf21 or High Five) infected with baculovirus; total cell membranes
T1 sequence (O75907 1-488): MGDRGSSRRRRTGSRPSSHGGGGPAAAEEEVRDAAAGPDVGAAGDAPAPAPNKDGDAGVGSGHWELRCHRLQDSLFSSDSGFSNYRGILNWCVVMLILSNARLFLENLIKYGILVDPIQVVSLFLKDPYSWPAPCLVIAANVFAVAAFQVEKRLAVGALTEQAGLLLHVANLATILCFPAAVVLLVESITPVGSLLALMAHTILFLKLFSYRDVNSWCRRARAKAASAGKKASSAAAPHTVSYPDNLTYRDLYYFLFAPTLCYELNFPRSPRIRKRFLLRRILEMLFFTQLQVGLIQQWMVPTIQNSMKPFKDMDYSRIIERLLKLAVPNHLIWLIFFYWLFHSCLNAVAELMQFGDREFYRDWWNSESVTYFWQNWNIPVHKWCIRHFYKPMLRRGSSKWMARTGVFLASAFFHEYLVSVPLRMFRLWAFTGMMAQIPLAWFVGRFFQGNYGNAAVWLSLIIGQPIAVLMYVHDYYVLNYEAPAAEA
Test: DGAT Scintillation Proximity Assay (SPA) with membranes of insect cells expressing human flagtag DGAT1
Type: biochemical
Settings: read-out: hDGAT1 IC50
Protocol: In such an assay human DGAT1 is cloned from a human liver cDNA library. PCR is used to add a restriction site and flag epitope at the most 5′ end and a restriction site at the 3′ end of the sequence. Thereafter, human flagtag (FT) DGAT1 baculovirus may be generated using a Bac-to-Bac Baculovirus Expression System® (Invitrogen). Insect cells (e.g., sf9, sf2 1, or High Five) are infected for 24 to 72 h and collected by centrifugation. Cell pellets are resuspended in homogenization buffer and lysed using a homogenization device, such as a Microfluidizer. Total cell membranes are collected by ultracentrifugation at 45,000 rpm for 1 h.
A small aliquot (0.2 μg/well) of membrane is incubated with 10 μM compound or mercuric chloride (as positive control for inhibition) in the presence of enzyme substrate, dioleoyl glycerol (200 μM) in 384 well plates, final volume 50 gL per well. […] The reaction is stopped by adding Wheat Germ Agglutinin (WGA) SPA beads (0.2 mg) in mercuric chloride. Cell membranes are allowed to couple to the beads overnight. The signal can be measured using, for example, a Chemiluminescence Image Plate Reader (CLIPR) or TopCount device.

Structure (SMILES) | pIC50
Cc1nc(N)c2c(n1)OC(C)(C)C(c1ccc(C3CCC(C(C)C(=O)O)CC3)cc1)=N2 (single isomer, unassigned) [Example 9] | 7.00 to 8.00
Nc1ncnc2c1N=C(c1ccccc1Br)CO2 [Example 1-5] | < 7.00
Nc1ncnc2c1N=C(c1ccc(Br)s1)CO2 [Example 1-24] | < 7.00
CN(C)C(=O)C=C1CCC(c2ccc(C3=Nc4c(N)ncnc4OC3(C)C)cc2)CC1 (stereo not drawn) [Example 2-44] | 7.00 to 8.00
CC1(C)Oc2ncnc(N)c2N=C1c1ccc(C2CCC(=CC(=O)NCCO)CC2)cc1 (stereo not drawn) [Example 2-48] | 7.00 to 8.00
CN(C)CCNC(=O)C=C1CCC(c2ccc(C3=Nc4c(N)ncnc4OC3(C)C)cc2)CC1 (stereo not drawn) [Example 2-51] | 7.00 to 8.00
CC1(C)Oc2ncnc(N)c2NC1c1ccc([C@H]2CC[C@H](CCO)CC2)cc1 (stereo partly drawn) [Example 2-81] | < 7.00
COc1ccc2[nH]c(C[C@H]3CC[C@H](c4ccc(C5=Nc6c(N)ncnc6OC5(C)C)cc4)CC3)nc2c1 [Example 2-121] | 7.00 to 8.00
Cc1nc(N)c2c(n1)OC(C)(C)C(c1ccc([C@H]3CC[C@H](CC4=NS(=O)ON4)CC3)cc1)=N2 (stereo partly drawn) [Example 2-153] | > 8.00
CN1CCN(C(=O)CC[C@H]2CC[C@H](c3ccc(C4=Nc5c(N)ncnc5OC4(C)C)cc3)CC2)CC1 [Example 2-181] | 7.00 to 8.00
CC1(C)Oc2ncnc(N)c2NC1c1ccc([C@H]2CC[C@H](CO)CC2)cc1 (stereo partly drawn) [Example 2-223] | < 7.00
CC1(C)Oc2ncnc(N)c2N=C1c1ccc([C@H]2CC[C@H](CN3CCC(O)(c4ccccc4)CC3)CC2)cc1 [Example 2-226] | < 7.00
Cc1nc(N)c2c(n1)OC(C)(C)C(c1ccc([C@H]3CC[C@H](CC(=O)O)CC3)cc1)C2 (stereo partly drawn) [Example 7-2] | 7.00 to 8.00
Cc1nc(N)c2c(n1)OC(C)(C)C(c1ccc3c(c1)CC[C@]31CC[C@@H](CC(=O)O)CC1)=N2 [Example 8-6] | 7.00 to 8.00
CC1(C)Oc2ncnc(N)c2N=C1c1ccc2c(c1)CC[C@@H]1C/C(=C\C(=O)O)CC[C@H]21 [Example 10-2] | 7.00 to 8.00
CC1(C)Oc2ncnc(N)c2N=C1c1ccc(C2CCC(C(C)(C)C(=O)O)CC2)cc1 (stereo not drawn) [Example 10-3] | > 8.00
CC1(C)Oc2ncnc(N)c2N=C1c1ccc(C2CCC3(CC2)CC3C(=O)O)cc1 (stereo not drawn) [Example 10-4] | 7.00 to 8.00
CC1(C)Oc2ncnc(N)c2N=C1c1ccc(C2CCC(c3cc(O)[nH]n3)CC2)cc1 (stereo not drawn) [Example 10-7] | 7.00 to 8.00
CC1(C)Oc2ncnc(N)c2N=C1c1ccc(C2CCC(c3cc(O)on3)CC2)cc1 (stereo not drawn) [Example 10-9] | 7.00 to 8.00
CC1(C)Oc2ncnc(N)c2N=C1c1ccc2c(c1)C(C)(C)CCC21CCC(CC(=O)O)CC1 (stereo not drawn) [Example 10-11] | 7.00 to 8.00
CC1(C)Oc2ncnc(N)c2N=C1c1ccc2c(c1)CCCC21CCC(C2(C(=O)O)CC2)CC1 (stereo not drawn) [Example 10-12] | 7.00 to 8.00
Cc1nc(N)c2c(n1)OC(C)(C)C(c1ccc3c(c1)CCC31CCC(C(C)(C)C(=O)O)CC1)=N2 (stereo not drawn) [Example 10-16] | 7.00 to 8.00

Continued, values first:

pIC50 | Structure (SMILES)
7.00 to 8.00 | CC1(C)Oc2ncnc(N)c2N=C1c1ccc(C2CCC(=CC(N)=O)CC2)cc1 (stereo not drawn) [Example 2-46]
7.00 to 8.00 | Cc1nc(N)c2c(n1)OC(C)(C)C(c1ccc([C@H]3CC[C@H](CNC(=O)COC(=O)CCC(=O)O)CC3)cc1)=N2 [Example 2-49]
7.00 to 8.00 | CN1CCN(C(=O)C=C2CCC(c3ccc(C4=Nc5c(N)ncnc5OC4(C)C)cc3)CC2)CC1 (stereo not drawn) [Example 2-50]
7.00 to 8.00 | CC1(C)Oc2ncnc(N)c2N=C1c1ccc([C@H]2CC[C@H](CN)CC2)cc1 [Example 2-63]
< 7.00 | CC1(C)Oc2ncnc(N)c2N=C1c1ccc(C2CCC(N3CCCC3)CC2)cc1 (stereo not drawn) [Example 2-89]
< 7.00 | CC1(C)Oc2ncnc(N)c2N=C1c1ccc(C2CCC(N3CCCCC3)CC2)cc1 (stereo not drawn) [Example 2-90]
7.00 to 8.00 | CC1(C)Oc2ncnc(N)c2N=C1c1ccc([C@H]2CC[C@H](CNC(=O)CO)CC2)cc1 [Example 2-91]
> 8.00 | CC(C)(C)OC(=O)NS(=O)(=O)NC[C@H]1CC[C@H](c2ccc(C3=Nc4c(N)ncnc4OC3(C)C)cc2)CC1 [Example 2-125]
7.00 to 8.00 | Cc1nc(N)c2c(n1)OC(C)(C)C(c1ccc([C@H]3CC[C@H](Cc4cc(O)[nH]n4)CC3)cc1)=N2 [Example 2-155]
> 8.00 | Cc1nc(N)c2c(n1)OC(C)(C)C(c1ccc([C@H]3CC[C@H](Cn4oc(=O)[nH]c4=O)CC3)cc1)=N2 [Example 2-157]
7.00 to 8.00 | Cc1nc(N)c2c(n1)OC(C)(C)C(c1ccc([C@H]3CC[C@H](CN4CC(C)(C)C(O)C4=O)CC3)cc1)=N2 (stereo partly drawn) [Example 2-167]
7.00 to 8.00 | Cc1nc(N)c2c(n1)OC(C)(C)C(c1ccc([C@H]3CC[C@H](Cc4nc(=O)on4C)CC3)cc1)=N2 [Example 2-168]
< 7.00 | Cc1nc(N)c2c(n1)OC(C)(C)C(c1ccc([C@H]3CC[C@H](CN4CCNC4=O)CC3)cc1)=N2 [Example 2-171]
7.00 to 8.00 | CC1(C)Oc2ncnc(N)c2N=C1c1ccc([C@H]2CC[C@H](CO)CC2)cc1 [Example 2-216]
< 7.00 | CC1(C)Oc2ncnc(N)c2N=C1c1ccc([C@H]2CC[C@H](CN3CCC(O)CC3)CC2)cc1 [Example 2-225]
7.00 to 8.00 | CN1CCN(C[C@H]2CC[C@H](c3ccc(C4=Nc5c(N)ncnc5OC4(C)C)cc3)CC2)CC1 [Example 2-230]

pIC50 | Structure (SMILES)
< 7.00 | CC(C)(C)OC(=O)N1CCN(C[C@H]2CC[C@H](c3ccc(C4=Nc5c(N)ncnc5OC4(C)C)cc3)CC2)CC1 [Example 2-242]
< 7.00 | CC1(C)Oc2ncnc(N)c2N=C1c1ccc(C2CCNCC2)cc1 [Example 3-2]
< 7.00 | CC1(C)Oc2ncnc(N)c2N=C1c1ccc(N2CCC(Cc3ccccc3)CC2)cc1 [Example 4-2]
< 7.00 | Cc1ccc(C2=Cc3c(N)ncnc3OC2(C)C)cc1 [Example 7-3]
7.00 to 8.00 | CC1(C)Oc2ncnc(N)c2N=C1c1ccc2c(c1)COC21CCC(CC(=O)O)CC1 (stereo not drawn) [Example 8-2]
7.00 to 8.00 | Cc1nc(N)c2c(n1)OC(C)(C)C(c1ccc3c(c1)CCC31CCC([C@@H](C)C(=O)O)CC1)=N2 (stereo partly drawn) [Example 8-4]
> 8.00 | CC1(C)Oc2ncnc(N)c2N=C1c1ccc2c(c1)CCC[C@]21CC[C@@H](CC(=O)O)CC1 [Example 8]
7.00 to 8.00 | Cc1nc(N)c2c(n1)OC(C)(C)C(c1ccc(C3CCC([C@H](C)C(=O)O)CC3)cc1)=N2 (stereo partly drawn) [Example 9-2]
7.00 to 8.00 | CC1(C)Oc2ncnc(N)c2N=C1c1ccc(C2CCC(C3(C(=O)O)CC3)CC2)cc1 (stereo not drawn) [Example 10-5]
7.00 to 8.00 | CC1(C)Oc2ncnc(N)c2N=C1c1ccc(C2CCC(C(O)C(=O)O)CC2)cc1 (stereo not drawn) [Example 10-6]
7.00 to 8.00 | CC1(C)Oc2ncnc(N)c2N=C1c1ccc(C2CCC(c3cc(O)no3)CC2)cc1 (stereo not drawn) [Example 10-8]
> 8.00 | CC1(C)Oc2ncnc(N)c2N=C1c1ccc2c(c1)CCC21CCC(CC(=O)O)CC1 (stereo not drawn) [Example 10-10]
> 8.00 | CC1(C)Oc2ncnc(N)c2N=C1c1ccc2c(c1)CCC21CCC(C(C)(C)C(=O)O)CC1 (stereo not drawn) [Example 10-13]
7.00 to 8.00 | Cc1nc(N)c2c(n1)OC(C)(C)C(c1ccc(C3CCC(C(C)(C)C(=O)O)CC3)cc1)=N2 (stereo not drawn) [Example 10-14]
> 8.00 | CC(C(=O)O)C1CCC(c2ccc(C3=Nc4c(N)nc(C(F)(F)F)nc4OC3(C)C)cc2)CC1 (stereo not drawn) [Example 10-15]
> 8.00 | CC(C(=O)O)C1CCC2(CCc3cc(C4=Nc5c(N)nc(C(F)(F)F)nc5OC4(C)C)ccc32)CC1 (stereo not drawn) [Example 10-17]

Source: US7244727B2, “Fused bicyclic nitrogen-containing heterocycles” (Japan Tobacco Inc., priority 2002, dated 2007)
